Reference: patent US9428439B2, “Hydrobenzamide derivatives as inhibitors of Hsp90” (priority 2006, dated 2016)

Legend:
[1] = biological target: T1, human Hsp90α N-terminal domain (Homo sapiens, UniProt P07900); assay: Isothermal titration calorimetry (ITC); format: binding
T1 construct: purification of the Human Hsp90α N-terminal domain were performed according to published methods; made in house
Method: The ability of the compounds of the invention to bind to human Hsp90 proteins was determined using isothermal titration calorimetry. Isothermal titration calorimetry (ITC) experiments were performed with a VP-ITC titration calorimeter (Microcal Inc., Northampton, Mass., USA). Cloning, expression, and purification of the Human Hsp90α N-terminal domain were performed according to published methods (Jez, J. M. et al, Chem. […] All solutions were filtered and degassed prior to a titration being carried out. The enthalpy change resulting from each injection of ligand was obtained through integration of the calorimetric signal. Data were analysed using Origin 7.0 (Microcal Software Inc., Northampton, Mass.). Heats of dilution were estimated using the final injections of each individual titration and subtracted before data fitting. […] For weakly binding compounds a low c-value ITC method was used (Turnbull […]. Am. Chem. Soc. 2003 Dec. 3; 125(48):14859-66) in which the protein was present at 10-20 μM in the calorimetric cell and the compound concentration was 1-20 mM in the injection syringe. In this type of experiment the stoichiometry parameter (N) was locked at 1 for data fitting. […] In rare cases where compound solubility was limiting, the compound solution was placed in the calorimetric cell and titrated with protein from the injection syringe, maintaining a c-value between 5 and 1000. […]

[2] = biological target: hERG (Homo sapiens, UniProt Q12809); assay: hERG activity
Chain of hERG (Q12809 whole entry): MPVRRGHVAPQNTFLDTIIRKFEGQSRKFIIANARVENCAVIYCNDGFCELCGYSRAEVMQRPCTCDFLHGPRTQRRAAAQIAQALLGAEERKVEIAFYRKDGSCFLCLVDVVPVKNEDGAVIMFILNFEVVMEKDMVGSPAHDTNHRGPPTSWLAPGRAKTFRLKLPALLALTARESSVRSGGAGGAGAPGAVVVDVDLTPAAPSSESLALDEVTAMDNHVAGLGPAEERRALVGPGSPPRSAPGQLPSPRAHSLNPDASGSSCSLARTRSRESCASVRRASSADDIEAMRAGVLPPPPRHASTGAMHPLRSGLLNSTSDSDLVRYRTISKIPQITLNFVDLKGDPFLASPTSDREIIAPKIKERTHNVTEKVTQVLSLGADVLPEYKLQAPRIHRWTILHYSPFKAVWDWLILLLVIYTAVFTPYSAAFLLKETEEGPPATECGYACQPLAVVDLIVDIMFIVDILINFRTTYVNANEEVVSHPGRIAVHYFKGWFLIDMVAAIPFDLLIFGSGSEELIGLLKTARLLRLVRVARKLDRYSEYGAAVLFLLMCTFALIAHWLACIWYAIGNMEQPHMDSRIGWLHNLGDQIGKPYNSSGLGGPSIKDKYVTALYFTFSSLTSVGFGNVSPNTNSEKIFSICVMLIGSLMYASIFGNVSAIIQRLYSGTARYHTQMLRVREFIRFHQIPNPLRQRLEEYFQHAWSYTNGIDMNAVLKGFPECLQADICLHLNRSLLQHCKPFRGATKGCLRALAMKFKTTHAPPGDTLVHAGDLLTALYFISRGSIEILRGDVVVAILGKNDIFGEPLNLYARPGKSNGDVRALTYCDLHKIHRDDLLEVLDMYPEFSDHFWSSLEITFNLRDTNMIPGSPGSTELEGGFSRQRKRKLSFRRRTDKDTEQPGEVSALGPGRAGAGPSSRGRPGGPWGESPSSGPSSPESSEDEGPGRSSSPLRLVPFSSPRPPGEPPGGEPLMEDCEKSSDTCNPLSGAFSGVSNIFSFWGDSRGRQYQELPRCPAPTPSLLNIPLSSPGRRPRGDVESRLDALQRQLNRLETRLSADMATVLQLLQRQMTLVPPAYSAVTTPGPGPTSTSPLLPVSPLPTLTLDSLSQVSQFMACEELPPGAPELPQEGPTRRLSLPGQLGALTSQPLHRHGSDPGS

[3] = test system: human colon cancer cell line HCT116; assay: Anti-proliferative activity (Alamar Blue assay); format: cell-based; conditions: HCT-116
Method: The anti-proliferative activities of compounds of the invention can be determined by measuring the ability of the compounds to inhibition of cell growth in a number of cell lines such as the human colon cancer cell line HCT116. Inhibition of cell growth is measured using the Alamar Blue assay (Nociari, M. M, Shalev, A., Benias, P., Russo, C. Journal of Immunological Methods 1998, 213, 157-167). The method is based on the ability of viable cells to reduce resazurin to its fluorescent product resorufin. For each proliferation assay cells are plated onto 96 well plates and allowed to recover for 16 hours prior to the addition of inhibitor compounds for a further 72 hours. At the end of the incubation period 10% (v/v) Alamar Blue is added and incubated for a further 6 hours prior to determination of fluorescent product at […]. In the case of the non-proliferating cell assay cells are maintained at confluence for 96 hour prior to the addition of inhibitor compounds for a further 72 hours. The number of viable cells is determined by Alamar Blue assay as before. Cell lines can be obtained from the ECACC (European Collection of cell Cultures).

`CC(C)c1cc(C(=O)N2Cc3ccc(CN4CCN(C)CC4)cc3C2)c(O)cc1O` [Compound (1), (2,4-dihydroxy-5-isopropyl-phenyl)-[5-(4-methyl-piperazin-1-ylmethyl)-1,3-dihydro-isoindol-2-yl]-methanone] was tested. Which Kd [1] did it give?
The Kd was under 100 nM.

And the hERG activity [2]?
The hERG activity was “low hERG activity”.

What about the “mean IC50 value against hERG relative to the IC50 values of the compound in cellular proliferation assays” value [2] of the same compound?
The value was “greater than 30 times”.

And the IC50 ([2]; read-out: mean IC50 value against hERG)?
The IC50 was over 15000 nM.

What about the IC50 [3] of the same compound?
The IC50 was under 100 nM.
